In patent publication US12704458B2, “Critical angle reflection imaging for quantification of molecular interactions” (ARIZONA BOARD OF REGENTS ON BEHALF OF ARIZONA STATE …, priority 2020, dated 2026) one finds Kd, ka and kd data, which are given here for one substance.

The subject of test [1] is glycoproteins on fixed HeLa cells. As to the kind of experiment: SPR imaging of WGA binding to glycoproteins on fixed HeLa cells. The conditions noted are these: gold surface, 50 μg/ml WGA, average of 10 cells. The method, then: SPR was first used to measure glycoprotein-WGA interaction on fixed HeLa cells (FIG. 7a). The cells were cultured on a gold surface and fixed right before the measurement (FIG. 7b). PBS buffer was flowed over the surface to establish a baseline and then introduced 50 μg/ml WGA (FIG. 7c). Binding of WGA to the glycoproteins increased the surface refractive index and caused the SPR signal to increase. After the association process, PBS buffer was flowed in again to induce dissociation of WGA from the cells. […] The WGA was labeled with Alexa Fluor 488, allowing verification of the binding using fluorescence. Three fluorescence images were captured at different phases of the binding process: at the baseline, after association, and after dissociation (FIG. 7d) respectively. The fluorescence change, although weak, confirmed that the SPR signal was due to the binding.
(§1) All the cell-related experiments including CAR, SPR, transmitted and fluorescence measurements (FIGS. 7-9) were performed on an objective-based SPR microscope setup, which consisted of an inverted microscope (Olympus IX-81) and a 60× (NA 1.49) oil-immersion objective. The light source for CAR and SPR imaging was a superluminescent light emitting diode (SLD-260-HP-TOW-PD-670, Superlum, Ireland) with 670 nm wavelength. The light source for transmitted and fluorescence imaging were the stocking halogen and mercury lamp of the microscope, respectively. A CMOS camera (ORCA-Flash 4.0, Hamamatsu) was used to record the images. A gravity-based drug perfusion system (SF-77B, Warner Instruments, Connecticut) was used for delivering analytes to the cells.
HeLa, SH-EP1, and SH-EP1_α4β2 cells were obtained from the American Type Culture Collection. […]
(§2) WinSpall 3.01 (Resonant Technologies GmbH, Germany) was used to calculate the reflectivity as a function of incident angle for CAR and SPR. The recorded CAR and SPR images were processed with ImageAnalysis (Biosensing Instrument Inc.) and Fiji. […]

Test [2] has the same test system. Nature of the test: CAR imaging of WGA binding to glycoproteins on fixed HeLa cells. The conditions noted are these: glass surface, ~61.0 degrees, 50 μg/ml WGA, average of the 9 cells. The procedure:
Next, CAR imaging was used to repeat the glycoprotein-WGA binding measurement. The cells were cultured on a glass surface, and the bright field image and the corresponding CAR image of 9 cells are shown in FIG. 7e. The cells show dark patterns because they have higher refractive index than the background. θi was set at ~61.0 degrees with similar sensitivity to SPR. […] The minor disagreement in kinetic constants might reflect different surfaces and different light illumination depth between SPR and CAR. Fluorescence images captured during the CAR measurement confirmed the binding of WGA (FIG. 7g). […] For this reason, CAR is believed to be more compatible with fluorescence than SPR, and suitable for measuring biological samples that need simultaneous fluorescent labelling.
as §1
HeLa, SH-EP1, and SH-EP1_α4β2 cells were obtained from the American Type Culture Collection. The cells were cultured in Dulbecco's modified eagle medium (Lonza) with 10% fetal bovine serum (Invitrogen) and 1% penicillin and streptomycin in a humidified incubator at 37° C. with 5% CO2. […]
as §2

Take “WGA: lectin that specifically binds N-acetylglucosamine structures in glycoproteins; with Alexa Fluor 488 tag, Thermo Fisher Scientific”: in test [1], the Kd was 53 ± 1 nM, the ka result is given as “(2.5±0.1)×10^3 M^−1s^−1” and the kd result was “(1.3±0.1)×10^−4 s^−1”. For the same substance, in test [2], the Kd amounted to 42 ± 1 nM, the ka entry is on record as “(6.0±0.1)×10^3 M^−1s^−1” and the kd result was “(2.6±0.1)×10^−4 s^−1”.

For orientation: Kd means the concentration at which binding is half-saturated. The low end stands for a tighter complex, the high end for a looser complex.
